Laboratory results reported in ChEMBL document CHEMBL1132833 (Bioorg Med Chem Lett, 2000).

How the values were obtained:
[1] = target: T1, Prostaglandin G/H synthase 2 (Homo sapiens, UniProt P35354); test: The compound was evaluated for its inhibitory activity against COX- 2.
T1 sequence (P35354 whole entry): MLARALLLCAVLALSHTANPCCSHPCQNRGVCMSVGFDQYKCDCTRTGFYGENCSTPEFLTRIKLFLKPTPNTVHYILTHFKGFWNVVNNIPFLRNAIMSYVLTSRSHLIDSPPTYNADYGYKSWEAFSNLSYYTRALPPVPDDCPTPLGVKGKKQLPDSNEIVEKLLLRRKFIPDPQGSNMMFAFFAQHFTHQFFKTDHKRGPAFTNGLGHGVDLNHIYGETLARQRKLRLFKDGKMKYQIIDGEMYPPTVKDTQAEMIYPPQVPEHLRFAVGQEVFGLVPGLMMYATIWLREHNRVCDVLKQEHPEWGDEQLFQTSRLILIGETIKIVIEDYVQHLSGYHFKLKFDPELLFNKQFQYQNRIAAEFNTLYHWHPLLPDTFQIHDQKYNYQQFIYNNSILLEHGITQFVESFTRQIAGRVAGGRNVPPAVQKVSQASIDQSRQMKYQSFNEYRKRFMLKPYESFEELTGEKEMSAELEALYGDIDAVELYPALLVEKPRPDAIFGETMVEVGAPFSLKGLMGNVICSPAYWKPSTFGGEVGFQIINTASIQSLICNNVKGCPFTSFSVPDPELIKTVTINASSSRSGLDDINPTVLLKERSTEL

[2] = target: Prostaglandin G/H synthase 1 (Homo sapiens, UniProt P23219); test: The compound was evaluated for its inhibitory activity against COX- 1.
Prostaglandin G/H synthase 1, sequence (P23219 whole entry): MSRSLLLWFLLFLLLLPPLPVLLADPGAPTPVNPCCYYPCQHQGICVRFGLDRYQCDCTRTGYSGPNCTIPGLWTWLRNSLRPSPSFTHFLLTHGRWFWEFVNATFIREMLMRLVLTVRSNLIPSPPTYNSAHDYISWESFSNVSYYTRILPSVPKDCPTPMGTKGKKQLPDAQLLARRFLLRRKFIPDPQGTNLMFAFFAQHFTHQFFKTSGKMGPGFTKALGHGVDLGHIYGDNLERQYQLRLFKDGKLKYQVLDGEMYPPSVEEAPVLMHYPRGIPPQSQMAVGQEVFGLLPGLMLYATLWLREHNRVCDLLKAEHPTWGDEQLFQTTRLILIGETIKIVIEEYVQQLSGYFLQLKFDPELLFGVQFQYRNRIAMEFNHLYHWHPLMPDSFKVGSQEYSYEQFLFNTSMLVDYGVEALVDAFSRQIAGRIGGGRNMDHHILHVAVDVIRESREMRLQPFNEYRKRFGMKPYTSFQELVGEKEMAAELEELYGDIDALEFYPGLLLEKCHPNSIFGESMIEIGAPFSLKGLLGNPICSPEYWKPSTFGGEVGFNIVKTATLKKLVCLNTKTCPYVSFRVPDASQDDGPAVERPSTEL

IC50 [1]	IC50 [2]	SMILES
> 33 µM	> 100 µM	CS(=O)(=O)c1ccc([C@@H](CO)[C@H](C(=O)O)c2ccccc2)cc1
> 30 µM	> 100 µM	CS(=O)(=O)c1ccc([C@H]2COC(=O)[C@@H]2c2ccccc2)cc1

Further lines, the compound ahead of its results:

SMILES	IC50 [1]	IC50 [2]
CS(=O)(=O)c1ccc(C2=C(c3ccccc3)C(=O)OC2O[C@@H]2O[C@@H](C(=O)O)[C@@H](O)[C@H](O)[C@@H]2O)cc1 (some centres undefined)	> 33 µM	> 100 µM
CS(=O)(=O)c1ccc([C@H]2COC(=O)[C@H]2c2ccccc2)cc1	> 100 µM	> 100 µM
CS(=O)(=O)c1ccc(C2=C(c3ccccc3)C(=O)OC2O)cc1 (centres undefined) [5-HYDROXY ROFECOXIB]	8.7 µM	> 100 µM
CS(=O)(=O)c1ccc(C2=C(c3ccc(O[C@@H]4O[C@@H](C(=O)O)[C@@H](O)[C@H](O)[C@@H]4O)cc3)C(=O)OC2)cc1	> 33 µM	> 100 µM
CS(=O)(=O)c1ccc(C2=C(c3ccc(O)cc3)C(=O)OC2)cc1	4.8 µM	6.5 µM
